Laboratory results as given in paper PMC4961458 (eLife, 2016).

How the values were obtained:
PR-A = target: T1, PR-A (Homo sapiens, UniProt P06401); test: PR-A transcriptional reporter assay, antagonist mode (HEPG2 cells)
T1 sequence (P06401 1-769 isoform P06401-2): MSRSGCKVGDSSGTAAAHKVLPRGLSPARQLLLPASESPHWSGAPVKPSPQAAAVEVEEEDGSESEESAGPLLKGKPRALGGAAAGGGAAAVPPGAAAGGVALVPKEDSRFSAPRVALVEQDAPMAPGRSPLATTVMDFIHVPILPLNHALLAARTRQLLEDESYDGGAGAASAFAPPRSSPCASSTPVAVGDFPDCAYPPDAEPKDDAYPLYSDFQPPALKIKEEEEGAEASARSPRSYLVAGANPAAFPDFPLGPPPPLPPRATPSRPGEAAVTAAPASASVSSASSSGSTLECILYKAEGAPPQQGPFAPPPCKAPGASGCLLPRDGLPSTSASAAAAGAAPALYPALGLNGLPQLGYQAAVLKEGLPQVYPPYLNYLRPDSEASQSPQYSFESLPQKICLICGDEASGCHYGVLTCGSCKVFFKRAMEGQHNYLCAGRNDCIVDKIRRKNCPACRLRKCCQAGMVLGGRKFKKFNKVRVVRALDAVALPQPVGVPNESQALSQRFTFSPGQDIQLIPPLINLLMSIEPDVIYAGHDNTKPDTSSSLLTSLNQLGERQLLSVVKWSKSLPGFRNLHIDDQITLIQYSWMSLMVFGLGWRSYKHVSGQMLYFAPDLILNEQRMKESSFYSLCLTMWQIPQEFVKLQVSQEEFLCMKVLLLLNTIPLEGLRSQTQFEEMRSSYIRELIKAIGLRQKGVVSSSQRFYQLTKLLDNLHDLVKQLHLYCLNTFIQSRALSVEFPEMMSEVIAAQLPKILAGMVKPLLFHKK

MR = target: T2, MR (Homo sapiens, UniProt P08235); test: MR transcriptional reporter assay, antagonist mode (HEPG2 cells); assay type: cell-based; conditions: 1 nM aldosterone
T2 construct: expressed in transfected cells; host or cells: HEPG2
T2 sequence (P08235 1-984): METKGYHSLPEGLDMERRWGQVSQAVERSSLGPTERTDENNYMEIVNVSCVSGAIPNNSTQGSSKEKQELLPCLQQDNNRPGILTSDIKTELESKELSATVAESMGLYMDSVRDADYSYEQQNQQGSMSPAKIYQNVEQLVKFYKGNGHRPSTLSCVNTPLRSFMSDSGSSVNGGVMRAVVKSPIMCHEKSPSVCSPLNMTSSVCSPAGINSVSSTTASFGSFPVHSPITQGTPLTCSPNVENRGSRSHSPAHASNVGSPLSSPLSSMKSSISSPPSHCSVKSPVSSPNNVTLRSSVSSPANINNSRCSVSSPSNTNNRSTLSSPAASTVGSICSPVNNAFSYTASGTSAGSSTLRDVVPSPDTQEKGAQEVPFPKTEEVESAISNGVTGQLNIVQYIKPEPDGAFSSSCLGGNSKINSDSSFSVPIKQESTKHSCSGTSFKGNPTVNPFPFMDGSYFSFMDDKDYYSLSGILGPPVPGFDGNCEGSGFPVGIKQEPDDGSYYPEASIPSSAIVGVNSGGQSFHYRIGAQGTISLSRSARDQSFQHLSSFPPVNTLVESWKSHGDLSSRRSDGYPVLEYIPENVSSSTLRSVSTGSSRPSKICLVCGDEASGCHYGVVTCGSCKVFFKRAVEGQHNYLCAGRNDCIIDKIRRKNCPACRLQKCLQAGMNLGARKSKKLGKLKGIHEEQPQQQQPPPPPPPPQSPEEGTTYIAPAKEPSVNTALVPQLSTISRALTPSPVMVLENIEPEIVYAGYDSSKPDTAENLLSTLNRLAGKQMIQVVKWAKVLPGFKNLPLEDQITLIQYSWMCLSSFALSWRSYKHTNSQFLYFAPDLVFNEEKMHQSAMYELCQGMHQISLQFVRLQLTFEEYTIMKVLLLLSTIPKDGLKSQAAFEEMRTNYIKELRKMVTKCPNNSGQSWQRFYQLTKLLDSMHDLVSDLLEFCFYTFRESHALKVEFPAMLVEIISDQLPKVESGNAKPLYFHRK

[1] = Fulvestrant plasma concentrations in mice
ER [2] = test system: ER; design: method as in van Kruchten et al., 2015; conditions: 500 mg dose, 6/16 patients; ref van Kruchten et al., 2015; cited from earlier work
AR = AR (Homo sapiens, UniProt P10275); test: AR competitive radioligand binding assay (MDA-MB-453 cell lysate); conditions: 0.6 nM 3H-R1881
Experimental: After reaching 90% confluence, cells were harvested, resuspended in TEGM (10 mM TrisHCl pH 7.2, 1 mM EDTA, 10% glycerol, 1 mM β-mercaptoethanol, 10 mM Sodium Molybdate), and frozen in liquid nitrogen in 10 mL aliquots containing 2 × 10^7 cells/mL. […] Reactions were incubated at 4°C overnight. Bound and unbound ligands were separated by ultrafiltration using a Unifilter-96 GF/C filter plate (Perkin Elmer). Bound ^3H-R1881 was eluted in 30 μL/well Microscint-20 and quantified using a scintillation counter (Top Count).

ERα = ERα (Homo sapiens, UniProt P03372); test: MCF7 3X ERE-LUC transcriptional reporter assay (ERα antagonist); conditions: 0.1 nM 17β-estradiol, 24 hr
[3] = test system: MDA-MB-231, an ER negative human breast cancer tumor model; test: MDA-MB-231 xenograft efficacy; assay type: in vivo, mice; conditions: GDC-0810 100 mg/kg/day p.o., 29 days
[4] = test system: ZR75-1 ER+ breast cancer tumors; test: ZR-75-1 xenograft efficacy; assay type: in vivo, mice; conditions: GDC-0810 100 mg/kg/day p.o., 28 days, 0.72 mg E2 pellets
ER [5] = test system: ER; design: method as in Dickler et al., 2015; conditions: postmenopausal women with ER+ locally advanced or metastatic breast cancer, patients with FES-PET scans; ref Dickler et al., 2015; cited from earlier work

Chain of ERα (P03372 whole entry): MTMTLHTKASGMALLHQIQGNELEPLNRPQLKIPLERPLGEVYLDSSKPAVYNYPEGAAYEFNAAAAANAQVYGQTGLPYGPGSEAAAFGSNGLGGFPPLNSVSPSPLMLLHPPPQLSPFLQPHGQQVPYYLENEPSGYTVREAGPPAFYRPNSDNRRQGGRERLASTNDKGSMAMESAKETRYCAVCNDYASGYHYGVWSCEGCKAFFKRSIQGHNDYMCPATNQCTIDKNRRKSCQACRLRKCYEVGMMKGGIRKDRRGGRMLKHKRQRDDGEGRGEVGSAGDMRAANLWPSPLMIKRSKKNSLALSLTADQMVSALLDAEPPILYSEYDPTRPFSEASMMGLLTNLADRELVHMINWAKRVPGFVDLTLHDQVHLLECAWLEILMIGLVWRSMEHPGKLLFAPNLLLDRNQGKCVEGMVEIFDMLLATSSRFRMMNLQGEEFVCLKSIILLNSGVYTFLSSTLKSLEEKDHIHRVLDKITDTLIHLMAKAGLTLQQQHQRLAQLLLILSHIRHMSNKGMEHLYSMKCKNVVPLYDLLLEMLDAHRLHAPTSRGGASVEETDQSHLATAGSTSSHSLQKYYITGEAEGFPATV
Chain of AR (P10275 whole entry): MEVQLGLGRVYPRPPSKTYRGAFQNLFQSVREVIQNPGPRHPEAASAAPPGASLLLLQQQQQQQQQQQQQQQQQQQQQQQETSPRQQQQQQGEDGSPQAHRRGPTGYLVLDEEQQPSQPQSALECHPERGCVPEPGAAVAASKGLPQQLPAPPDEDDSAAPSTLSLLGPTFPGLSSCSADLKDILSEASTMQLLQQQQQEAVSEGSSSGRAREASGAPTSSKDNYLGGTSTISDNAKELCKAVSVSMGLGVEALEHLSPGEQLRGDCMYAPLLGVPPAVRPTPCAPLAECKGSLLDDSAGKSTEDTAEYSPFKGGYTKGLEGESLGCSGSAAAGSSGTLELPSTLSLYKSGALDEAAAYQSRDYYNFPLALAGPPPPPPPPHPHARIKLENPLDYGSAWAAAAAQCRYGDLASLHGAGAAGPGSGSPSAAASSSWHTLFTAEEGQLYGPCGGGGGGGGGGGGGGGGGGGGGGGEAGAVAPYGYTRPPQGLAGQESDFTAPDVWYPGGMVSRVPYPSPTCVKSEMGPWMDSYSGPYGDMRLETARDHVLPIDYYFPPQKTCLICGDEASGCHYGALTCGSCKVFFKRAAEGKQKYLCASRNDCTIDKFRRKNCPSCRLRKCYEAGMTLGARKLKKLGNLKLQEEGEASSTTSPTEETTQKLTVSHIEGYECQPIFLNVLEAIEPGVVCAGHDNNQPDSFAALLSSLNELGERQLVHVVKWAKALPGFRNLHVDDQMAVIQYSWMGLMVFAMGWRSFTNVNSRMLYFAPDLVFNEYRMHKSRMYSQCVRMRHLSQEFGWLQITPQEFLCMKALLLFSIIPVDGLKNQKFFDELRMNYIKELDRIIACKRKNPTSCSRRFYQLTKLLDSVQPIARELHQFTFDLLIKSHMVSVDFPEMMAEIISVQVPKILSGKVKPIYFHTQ

Structure (SMILES): CC/C(=C(\c1ccc(O)cc1)c1ccc(OCCN(C)C)cc1)c1ccccc1 [4-OH Tam, 4-hydroxytamoxifen]
- IC50 (PR-A): 12 ± 4.5 µM
- IC50 (MR): 6.42 ± 0.75 µM

Structure (SMILES): C[C@]12CC[C@@H]3c4ccc(O)cc4C[C@@H](CCCCCCCCC[S+]([O-])CCCC(F)(F)C(F)(F)F)[C@H]3[C@@H]1CC[C@@H]2O (stereo partly drawn) [Fulvestrant]
- Plasma Conc Mean ([1]; 50 mg/kg Days 1, 3 & 8, 25 mg/kg Days 15 & 22, Day 21, Time 0 hr): 15 ng/mL
- Plasma Conc Mean ([1]; 200 mg/kg 3x/wk, Day 28, Time 0 hr): 731 ng/mL
- Plasma Conc Mean ([1]; 200 mg/kg 3x/wk, Day 57, Time 0 hr): 665 ng/mL
- plasma concentrations (exposure) on average ([1]; mice, 200 mg/kg dose, 3 times per week): 12000 to 14000 ng·h/mL
- patients with incomplete inhibition of [18F]fluoroestradiol uptake (ER [2]): 38 % of patients
- IC50 (AR): > 4 µM
- Transcription 3X ERE-LUC Emax (ERα): 4.1 ± 2.6 % E2

Structure (SMILES): CC/C(=C(/c1ccc(/C=C/C(=O)O)cc1)c1ccc2[nH]ncc2c1)c1ccc(F)cc1Cl [GDC-0810]
- Tumor growth response, MDA-MB-231 xenograft [3]: did not exhibit any anti-tumor activity
- Tumor growth response, ZR75-1 xenograft [4]: displayed anti-tumor activity
- patients with complete/near complete (>90%) suppression of FES uptake (ER [5]): 90 % of patients
